# Reference: patent US20250368648A1, “MULTI-CYCLIC IRAK AND FLT3 INHIBITING COMPOUNDS AND USES THEREOF” (CHILDREN'S HOSPITAL MEDICAL CENTER, priority 2022, published 2025)
# Target: T1, FLT3 D835H (Homo sapiens, UniProt P36888, D835H)
# T1 construct: purchased DiscoverX (KINOMEscan); host or cells: E. coli (T7 phage) or HEK-293
# T1 sequence (P36888 27-993 D835H): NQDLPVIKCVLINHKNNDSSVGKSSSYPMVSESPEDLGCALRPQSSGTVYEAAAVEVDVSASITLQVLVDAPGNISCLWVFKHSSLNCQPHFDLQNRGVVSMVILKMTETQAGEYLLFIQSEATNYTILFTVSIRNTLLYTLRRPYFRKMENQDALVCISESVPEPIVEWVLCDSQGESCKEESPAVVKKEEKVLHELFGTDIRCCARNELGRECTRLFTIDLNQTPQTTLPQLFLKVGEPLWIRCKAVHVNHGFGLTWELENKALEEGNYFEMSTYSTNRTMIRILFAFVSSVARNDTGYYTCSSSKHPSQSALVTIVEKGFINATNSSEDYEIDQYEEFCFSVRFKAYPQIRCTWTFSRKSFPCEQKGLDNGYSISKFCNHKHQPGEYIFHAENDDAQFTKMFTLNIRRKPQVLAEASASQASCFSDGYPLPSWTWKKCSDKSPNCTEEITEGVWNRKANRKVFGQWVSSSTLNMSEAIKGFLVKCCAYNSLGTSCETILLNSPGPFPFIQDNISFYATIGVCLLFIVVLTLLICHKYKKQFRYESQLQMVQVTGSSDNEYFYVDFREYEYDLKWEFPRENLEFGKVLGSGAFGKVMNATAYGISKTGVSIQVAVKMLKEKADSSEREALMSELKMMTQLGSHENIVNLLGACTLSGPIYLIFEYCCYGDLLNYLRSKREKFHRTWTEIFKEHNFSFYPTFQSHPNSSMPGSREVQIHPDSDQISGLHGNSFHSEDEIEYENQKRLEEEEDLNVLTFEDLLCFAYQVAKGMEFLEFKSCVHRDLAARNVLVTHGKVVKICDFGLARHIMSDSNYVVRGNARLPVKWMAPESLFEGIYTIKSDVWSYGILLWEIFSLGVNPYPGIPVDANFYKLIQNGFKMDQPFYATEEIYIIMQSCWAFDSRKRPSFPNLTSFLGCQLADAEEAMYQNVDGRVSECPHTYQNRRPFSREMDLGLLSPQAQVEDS
# Experiment: DiscoverX KINOMEscan competition binding, FLT3 D835H
# Settings: no ATP
# Description: Kinase binding data were obtained for various exemplary compounds prepared according to Examples 2-15 using the DiscoverX KINOMEscan® active site-directed competition binding site-directed assay protocol described below. […] As a result, the data report thermodynamic interaction affinities (Kd values), rather than IC50 values that are dependent on ATP concentrations. The assay uses a DNA-tagged version of the protein kinase, and an immobilized ligand bound to a solid support. Compounds that directly or indirectly prevent kinase binding to the immobilized ligand reduce the amount of kinase captured on the solid support, which is detected using an ultra-sensitive qPCR method. Affinity constants reported from the assay have been reported to be independent of the immobilized ligand used that is coupled to the solid support (See supplemental information in Fabian, M. A. et. al., (2005) Nat. […] Wodicka, L. […] Biol. 17, 1241-1249.) Kinase-tagged T7 phage strains were prepared in an E. coli host derived from the BL21 strain. E. coli were grown to log-phase and infected with T7 phage and incubated with shaking at 32° C. until lysis. […] Kds were determined using an 11-point 3-fold compound dilution series with three DMSO control points. […] The kinase concentration in the eluates was measured by qPCR. Binding constants (Kds) were calculated with a standard dose-response curve using the Hill equation. […]
compound,measurement,value
"COc1cc2ncc(-c3nc(N[C@H]4CNCC[C@@H]4F)c(F)cc3F)n2nc1C1CCC1 [Compound 15a, 6-(6-cyclobutyl-7-methoxyimidazo[1,2-b]pyridazin-3-yl)-3,5-difluoro-N-((3S,4S)-4-fluoropiperidin-3-yl)pyridin-2-amine]",Kd,< 0.17 nM
